We go through two compounds from publication PMC3608514 (Advances in enzyme regulation, 2009).

As a reminder, the Ki is the dissociation constant of the complex between target and ligand, obtained from inhibition or displacement.

Assay [1] has as its target T1, DGK-θ (Homo sapiens, UniProt P52824).
T1 sequence (P52824 1-942): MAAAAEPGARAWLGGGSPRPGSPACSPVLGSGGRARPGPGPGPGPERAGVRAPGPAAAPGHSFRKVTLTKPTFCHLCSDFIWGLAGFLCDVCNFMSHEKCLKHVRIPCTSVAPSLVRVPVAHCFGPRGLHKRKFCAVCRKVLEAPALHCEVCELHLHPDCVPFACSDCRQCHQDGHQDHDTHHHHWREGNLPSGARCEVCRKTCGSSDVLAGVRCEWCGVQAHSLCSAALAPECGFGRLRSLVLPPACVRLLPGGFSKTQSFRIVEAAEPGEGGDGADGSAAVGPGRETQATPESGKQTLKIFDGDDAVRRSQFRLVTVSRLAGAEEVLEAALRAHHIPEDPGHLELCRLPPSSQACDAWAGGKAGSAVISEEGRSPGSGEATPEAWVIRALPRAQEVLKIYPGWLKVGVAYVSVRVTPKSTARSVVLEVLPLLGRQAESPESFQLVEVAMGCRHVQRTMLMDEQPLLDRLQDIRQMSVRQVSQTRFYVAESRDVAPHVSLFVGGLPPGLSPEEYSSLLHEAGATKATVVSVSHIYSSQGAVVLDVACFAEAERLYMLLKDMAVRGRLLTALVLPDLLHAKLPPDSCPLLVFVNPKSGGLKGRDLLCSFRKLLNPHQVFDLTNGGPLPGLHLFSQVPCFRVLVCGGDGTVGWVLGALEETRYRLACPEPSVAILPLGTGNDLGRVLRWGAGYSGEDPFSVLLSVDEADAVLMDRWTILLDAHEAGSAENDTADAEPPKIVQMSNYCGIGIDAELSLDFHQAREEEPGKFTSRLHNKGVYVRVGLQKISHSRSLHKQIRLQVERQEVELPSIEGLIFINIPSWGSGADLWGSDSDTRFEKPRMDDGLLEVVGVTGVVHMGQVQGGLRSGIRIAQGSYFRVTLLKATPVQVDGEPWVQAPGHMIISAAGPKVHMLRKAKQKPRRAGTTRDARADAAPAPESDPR
Briefly: DGK activity assay. It is filed as biochemical.

Assay [2] addresses T1, DGK-θ.

`COc1ccc2c(c1)CC[C@@H]1[C@@H]2CC[C@]2(C)[C@@H](NCCCCCCN3C(=O)C=CC3=O)CC[C@@H]12` [U73122] displayed an inhibitory constant (Ki) at DGK-θ [1] of around 20 µM.
Consider `O=P(O)(O)OP(=O)(O)O` [NaPPi, sodium pyrophosphate], for which, at DGK-θ [2], the “DGK activity assay in OG mixed micelles with cytosol over-expressing DGKθ; dose” value lay within 1 to 2 mM.
